We go through 1 compound from patent US4404230A, “4-Hydroxy-1,2-Benzisothiazol-3(2H)-one-1,1-dioxides and salts thereof” (priority 1980, dated 1983).

This data set deals with rats. Kind of data set: Test for subacute toxicity in the rat. Format: in vivo, Chbb:Thom-rats. As to conditions: 750 mg/kg daily, 5 weeks. Here is the method:
The test was carried out on 10 male and 10 female Chbb:Thom-rats. During a period of 5 weeks 750 mg/kg of substance B were administered to the animals daily. […] After the 5 weeks the animals were killed, and the following organs were dissected for histological examination: heart, lungs, liver, spleen, suprarenals, brain, kidney and pancreas.

With `O=C1NS(=O)(=O)c2cccc(O)c21.[Na]`, the behavior entry is “normal behavior” and the spontaneous deaths entry is recorded as “No spontaneous deaths could be observed”. Also, the “histological examination of organs” value (heart, lungs, liver, spleen, suprarenals, brain, kidney, pancreas) is “did not show any pathological findings”.
